Experimental data reported in paper PMC4861429, “Molecular Insights into Toluene Sensing in the TodS/TodT Signal Transduction System” (The Journal of Biological Chemistry, 2016).

Tests used:
Assay in all cases: ITC
Assay type in all cases: binding
[1] = biological target: T1, PAS1(23–168); dimerization helix-containing PAS1 of TodS (Pseudomonas putida, UniProt A5W4E3, V59A)
T1 construct: PAS1 sensor domain with dimerization helix, residues 23-168; N-terminal His6 tag kept; E. coli C41(DE3); dimer in solution

[2] = biological target: T2, PAS1(23–168); dimerization helix-containing PAS1 of TodS (Pseudomonas putida, UniProt A5W4E3, I114V)
T2 construct: PAS1 sensor domain with dimerization helix, residues 23-168; N-terminal His6 tag kept; E. coli C41(DE3); dimer in solution

[3] = biological target: T3, PAS1(23–168); dimerization helix-containing PAS1 of TodS (Pseudomonas putida, UniProt A5W4E3)
T3 construct: PAS1 sensor domain with dimerization helix, residues 23-168; N-terminal His6 tag kept; E. coli C41(DE3); dimer in solution

[4] = biological target: T4, PAS1(23–168); dimerization helix-containing PAS1 of TodS (Pseudomonas putida, UniProt A5W4E3, E146A)
T4 construct: PAS1 sensor domain with dimerization helix, residues 23-168; N-terminal His6 tag kept; E. coli C41(DE3); dimer in solution

[5] = biological target: T5, PAS1(23–168); dimerization helix-containing PAS1 of TodS (Pseudomonas putida, UniProt A5W4E3, F46A)
T5 construct: PAS1 sensor domain with dimerization helix, residues 23-168; N-terminal His6 tag kept; E. coli C41(DE3); dimer in solution

[6] = biological target: T6, PAS1(23–168); dimerization helix-containing PAS1 of TodS (Pseudomonas putida, UniProt A5W4E3, F79Y)
T6 construct: PAS1 sensor domain with dimerization helix, residues 23-168; N-terminal His6 tag kept; E. coli C41(DE3); dimer in solution

[7] = biological target: T7, PAS1(23–168); dimerization helix-containing PAS1 of TodS (Pseudomonas putida, UniProt A5W4E3, W85H)
T7 construct: PAS1 sensor domain with dimerization helix, residues 23-168; N-terminal His6 tag kept; E. coli C41(DE3); dimer in solution
T7 sequence (A5W4E3 23-168 W85H): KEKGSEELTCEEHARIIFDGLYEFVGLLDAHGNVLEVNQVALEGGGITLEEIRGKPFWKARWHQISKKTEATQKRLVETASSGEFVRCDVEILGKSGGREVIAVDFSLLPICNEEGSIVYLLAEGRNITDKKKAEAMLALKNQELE

T3 sequence (A5W4E3 23-168): as the sequence (A5W4E3 23-168 W85H) above, with H63W counted along it
T2 sequence (A5W4E3 23-168 I114V): as the sequence (A5W4E3 23-168 W85H) above, with H63W, I92V counted along it
T4 sequence (A5W4E3 23-168, stated change not applied): as the sequence (A5W4E3 23-168 W85H) above, with H63W counted along it
T5 sequence (A5W4E3 23-168 F46A): as the sequence (A5W4E3 23-168 W85H) above, with F24A, H63W counted along it
T6 sequence (A5W4E3 23-168 F79Y): as the sequence (A5W4E3 23-168 W85H) above, with F57Y, H63W counted along it
T1 sequence (A5W4E3 23-168 V59A): as the sequence (A5W4E3 23-168 W85H) above, with V37A, H63W counted along it

Row | SMILES | Kd [1] | Kd [2] | Kd [3] | Kd [4] | Kd [5] | Kd [6] | Kd [7]
1 | Cc1ccccc1 [toluene] | 14.6 µM | 8.4 µM | 8.5 µM | 9.6 µM | 95.2 µM | 71.4 µM | 10.6 µM
2 | Cc1cccc(C)c1 [m-xylene] | – | 6.1 µM | 9.5 µM | – | – | – | –
